{
  "source": "paper PMC10745968",
  "about": "(Molecules, 2023)",
  "key": {"[1]": {"system": "Escherichia coli", "type": "cell-based"}, "[2]": {"system": "Salmonella typhi", "type": "cell-based"}, "[3]": {"system": "Bacillus subtilis", "type": "cell-based"}, "[4]": {"system": "Pseudomonas aeruginosa", "type": "cell-based"}, "[5]": {"system": "Bacillus cereus", "type": "cell-based"}, "[6]": {"system": "Staphylococcus aureus", "type": "cell-based"}, "[7]": {"system": "brine shrimp nauplii", "conditions": "in vivo"}, "[8]": {"system": "Aspergillus niger", "type": "cell-based", "conditions": "5 days"}, "[9]": {"system": "Aspergillus flavus", "type": "cell-based", "conditions": "5 days"}},
  "data": [
    {"smiles": "CC[C@H]1OC(=O)[C@H](C)[C@@H](O[C@H]2C[C@@](C)(OC)[C@@H](O)[C@H](C)O2)[C@H](C)[C@@H](O[C@@H]2O[C@H](C)C[C@H](N(C)C)[C@H]2O)[C@](C)(O)C[C@@H](C)CN(C)[C@H](C)[C@@H](O)[C@]1(C)O", "note": "[Azithromycin, reference compound]", "values": [
      {"measurement": "Diameter of Inhibition Zone", "setting": "[1]", "result": "** 17.25 ± 0.1 mm"},
      {"measurement": "Diameter of Inhibition Zone", "setting": "[2]", "result": "** 18.0 ± 0.2 mm"},
      {"measurement": "Diameter of Inhibition Zone", "setting": "[3]", "result": "** 18.5 ± 0.3 mm"},
      {"measurement": "Diameter of Inhibition Zone", "setting": "[4]", "result": "** 18.5 ± 0.3 mm"},
      {"measurement": "Diameter of Inhibition Zone", "setting": "[5]", "result": "** 17.22 ± 0.3 mm"},
      {"measurement": "Diameter of Inhibition Zone", "setting": "[6]", "result": "** 17.75 ± 0.3 mm"}
    ]},
    {"smiles": "CO[C@H]1O[C@H](COC(=O)C=Cc2ccccc2)[C@@H](O)[C@H](O)[C@@H]1O", "note": "[Compound 2, Methyl 6-O-cinnamoyl-α-D-mannopyranoside]", "values": [
      {"measurement": "Diameter of Inhibition Zone", "setting": "[2]", "result": "12.41 ± 0.3", "unit": "mm"},
      {"measurement": "Diameter of Inhibition Zone", "setting": "[5]", "result": "07.11 ± 0.5", "unit": "mm"},
      {"measurement": "death rate (brine shrimp)", "setting": "[7]", "result": 27.07, "unit": "%"},
      {"measurement": "Diameter of Inhibition Zone", "setting": "[6]", "result": "11.75 ± 0.3", "unit": "mm"}
    ]},
    {"smiles": "CCCCCCC(=O)O[C@@H]1[C@H](OC(=O)CCCCCC)[C@@H](OC)O[C@H](COC(=O)C=Cc2ccccc2)[C@H]1OC(=O)CCCCCC", "note": "[Compound 3, Methyl 2,3,4-tri-O-heptanoyl-6-O-cinnamoyl-α-D-mannopyranoside]", "values": [
      {"measurement": "Diameter of Inhibition Zone", "setting": "[1]", "result": "10.25 ± 0.2", "unit": "mm"}
    ]},
    {"smiles": "CCCCCCCC(=O)O[C@@H]1[C@H](OC(=O)CCCCCCC)[C@@H](OC)O[C@H](COC(=O)C=Cc2ccccc2)[C@H]1OC(=O)CCCCCCC", "note": "[Compound 4, Methyl 6-O-cinnamoyl-2,3,4-tri-O-octanoyl-α-D-mannopyranoside]", "values": [
      {"measurement": "Diameter of Inhibition Zone", "setting": "[1]", "result": "11.53 ± 0.2", "unit": "mm"},
      {"measurement": "Diameter of Inhibition Zone", "setting": "[2]", "result": "10.23 ± 0.5", "unit": "mm"},
      {"measurement": "Diameter of Inhibition Zone", "setting": "[3]", "result": "10.51 ± 0.6", "unit": "mm"},
      {"measurement": "% Inhibition of Fungal Mycelial Growth in mm (20 μg/μL)", "setting": "[8]", "result": "* 96.22 ± 1.1%"},
      {"measurement": "Diameter of Inhibition Zone", "setting": "[4]", "result": "09.19 ± 0.6", "unit": "mm"},
      {"measurement": "% Inhibition of Fungal Mycelial Growth in mm (20 μg/μL)", "setting": "[9]", "result": "* 98.47 ± 1.0%"},
      {"measurement": "death rate (brine shrimp)", "setting": "[7]", "result": "36.10-37.03%"}
    ]},
    {"smiles": "CO[C@H]1O[C@H](COC(=O)/C=C/c2ccccc2)[C@@H](OS(=O)(=O)c2ccc(C)cc2)[C@H](OS(=O)(=O)c2ccc(C)cc2)[C@@H]1OS(=O)(=O)c1ccc(C)cc1", "note": "[Compound 5, Methyl 2,3,4-tri-O-p-toluenesulfonyl-6-O-cinnamoyl-α-D-mannopyranoside]", "values": [
      {"measurement": "Diameter of Inhibition Zone", "setting": "[1]", "result": "9.00 ± 0.2", "unit": "mm"},
      {"measurement": "Diameter of Inhibition Zone", "setting": "[3]", "result": "12.15 ± 0.7", "unit": "mm"},
      {"measurement": "% Inhibition of Fungal Mycelial Growth in mm (20 μg/μL)", "setting": "[8]", "result": "57.62 ± 1.1", "unit": "%"},
      {"measurement": "Diameter of Inhibition Zone", "setting": "[4]", "result": "12.36 ± 0.2", "unit": "mm"},
      {"measurement": "% Inhibition of Fungal Mycelial Growth in mm (20 μg/μL)", "setting": "[9]", "result": "* 81.30 ± 1.0%"},
      {"measurement": "Diameter of Inhibition Zone", "setting": "[5]", "result": "08.10 ± 0.3", "unit": "mm"}
    ]},
    {"smiles": "CO[C@H]1O[C@H](COC(=O)C=Cc2ccccc2)[C@@H](OS(=O)(=O)c2ccccc2)[C@H](OS(=O)(=O)c2ccccc2)[C@@H]1OS(=O)(=O)c1ccccc1", "note": "[Compound 6, Methyl 6-O-cinnamoyl-2,3,4-tri-O-benzenesulfonyl-α-D-mannopyranoside]", "values": [
      {"measurement": "Diameter of Inhibition Zone", "setting": "[1]", "result": "9.00 ± 0.3", "unit": "mm"},
      {"measurement": "Diameter of Inhibition Zone", "setting": "[2]", "result": "9.17 ± 0.1", "unit": "mm"},
      {"measurement": "Diameter of Inhibition Zone", "setting": "[3]", "result": "10.13 ± 0.8", "unit": "mm"},
      {"measurement": "Diameter of Inhibition Zone", "setting": "[4]", "result": "8.50 ± 0.2", "unit": "mm"},
      {"measurement": "death rate (brine shrimp)", "setting": "[7]", "result": "36.10-37.03%"}
    ]},
    {"smiles": "C[C@@H]1[C@H](O)[C@@H](C)/C=C/C=C/CC/C=C/C=C/C=C/C=C/C(O[C@H]2O[C@H](C)[C@@H](O)[C@H](N)[C@@H]2O)CC2O[C@](O)(CC(O)C(O)CCC(O)CC(O)CC(O)CC(=O)O[C@H]1C)CC(O)C2C(=O)O", "note": "(stereo partly shown) [Nystatin, nystatin, reference compound]", "values": [
      {"measurement": "% Inhibition of Fungal Mycelial Growth in mm (20 μg/μL)", "setting": "[8]", "result": "** 65.4 ± 1.0%"},
      {"measurement": "% Inhibition of Fungal Mycelial Growth in mm (20 μg/μL)", "setting": "[9]", "result": "** 64.1 ± 1.0%"}
    ]}
  ]
}
